Data from patent publication US12157730B2, “Heteroaryl derivative, method for producing same, and pharmaceutical composition comprising same as effective component” (VORONOI INC., priority 2019, dated 2024).

How the values were obtained:
Assay type in all cases: cell-based
[1] = test system: PC9; assay: Lung cancer cell proliferation suppression, PC9; conditions: Homo sapiens, PC-9; 72 hours after treatment, CellTiter-Glo
Experimental: (§1) The following experiment was carried out to evaluate the suppression activity of the compounds according to the present invention against proliferation of Ba/F3 and lung cancer cells which express EGFR mutations.
(§2) Of the cancer cell lines expressing the EGFR gene, A549 was cultured after adding 10% FBS (HyClone) to DMEM (Invitrogen), and RPMI-1640 (Invitrogen) with 10% FBS was used for the other cancer cells. For the Ba/F3 cells, RPMI-1640 with 10% FBS and 5 ng/ml IL-3 (R&D Systems) was used. The transduced Ba/F3 cells were cultured by adding 1 ug/ml puromycin (Invitrogen) to the same medium.
(§3) 24 hours before treatment with the compounds, 3000 to 5000 cells were distributed into each well of a white clear bottom 96 well plate (Corning). The compounds were diluted in dimethylsulfoxide (dilution ratio 3:1; 12 concentrations total) and injected 0.5 ul each for a final concentration of 0.3 nM to 50 um. As for measurement of live cells, 72 hours after treatment with the compounds, a CellTiter-Glo luminescent cell-viability reagent (Promega) was used to store the cells at room temperature for 10 minutes, followed by measurement of luminescence using a reader (SynergyNeo, Biotek). Each test was repeated three times.
(§4) The result was calculated as a cell growth ratio (%) compared to a control. The program GraphPad Prism version 5.0 was used to draw the graphs and calculate the GI50 values.

[2] = test system: H1975; assay: Lung cancer cell proliferation suppression, H1975; conditions: Homo sapiens, NCI-H1975; 72 hours after treatment, CellTiter-Glo
Experimental: as §1, §2, §3, §4

[3] = test system: PC9GR; assay: Lung cancer cell proliferation suppression, PC9GR; conditions: 72 hours after treatment, CellTiter-Glo
Experimental: as §1, §2, §3, §4

[4] = Cancer cell proliferation suppression, A549; conditions: A459; 72 hours after treatment, CellTiter-Glo
Experimental: as §1, §2, §3, §4

[5] = test system: Ba/F3 cell EGFR Exon20 ins H; assay: Ba/F3 cell proliferation suppression, EGFR Exon20 ins H; conditions: 72 hours after treatment, CellTiter-Glo
Experimental: as §1, §2, §3, §4

[6] = target: T1, Ba/F3 cell HER2 Exon20 ins YVMA (Homo sapiens, UniProt P04626, INS775YVMA); assay: Ba/F3 cell proliferation suppression, HER2 Exon20 ins YVMA; conditions: 72 hours after treatment, CellTiter-Glo
T1 construct: expressed in transfected cells; host or cells: Ba/F3
T1 sequence (P04626 with tags, fused parts or gaps INS775YVMA): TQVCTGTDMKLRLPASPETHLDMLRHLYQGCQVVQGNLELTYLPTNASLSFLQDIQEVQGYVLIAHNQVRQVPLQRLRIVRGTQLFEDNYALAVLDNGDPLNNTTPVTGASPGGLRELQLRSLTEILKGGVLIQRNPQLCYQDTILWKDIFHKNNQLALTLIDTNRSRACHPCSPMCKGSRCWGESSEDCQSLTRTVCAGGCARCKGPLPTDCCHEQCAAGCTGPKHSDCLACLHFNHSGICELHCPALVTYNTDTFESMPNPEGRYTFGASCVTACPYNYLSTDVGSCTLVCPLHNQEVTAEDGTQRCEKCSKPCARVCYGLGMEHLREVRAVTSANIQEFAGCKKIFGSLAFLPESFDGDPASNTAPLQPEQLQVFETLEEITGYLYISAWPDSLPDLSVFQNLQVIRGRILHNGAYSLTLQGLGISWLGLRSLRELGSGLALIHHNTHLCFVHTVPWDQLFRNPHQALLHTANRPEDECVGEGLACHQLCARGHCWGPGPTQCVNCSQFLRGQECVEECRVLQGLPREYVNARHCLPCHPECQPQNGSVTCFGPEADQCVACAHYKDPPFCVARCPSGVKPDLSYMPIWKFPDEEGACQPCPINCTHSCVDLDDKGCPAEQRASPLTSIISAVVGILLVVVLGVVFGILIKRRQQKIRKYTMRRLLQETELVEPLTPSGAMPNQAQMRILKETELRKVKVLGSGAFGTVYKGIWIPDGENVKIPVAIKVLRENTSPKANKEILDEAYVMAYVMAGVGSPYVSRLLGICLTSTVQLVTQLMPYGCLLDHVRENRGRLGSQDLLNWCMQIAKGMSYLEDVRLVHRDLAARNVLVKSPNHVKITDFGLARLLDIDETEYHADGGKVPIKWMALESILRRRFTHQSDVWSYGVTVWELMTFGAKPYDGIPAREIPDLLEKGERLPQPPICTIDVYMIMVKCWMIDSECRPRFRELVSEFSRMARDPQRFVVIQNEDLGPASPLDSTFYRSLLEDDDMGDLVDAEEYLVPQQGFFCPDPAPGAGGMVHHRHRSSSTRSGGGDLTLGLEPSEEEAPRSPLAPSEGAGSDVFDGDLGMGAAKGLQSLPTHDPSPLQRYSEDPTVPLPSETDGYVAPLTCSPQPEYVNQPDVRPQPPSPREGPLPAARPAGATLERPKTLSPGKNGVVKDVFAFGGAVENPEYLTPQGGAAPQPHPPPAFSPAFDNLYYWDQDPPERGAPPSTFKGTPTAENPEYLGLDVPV
Experimental: as §1, §2, §3, §4

[7] = test system: Ba/F3 cell naive; assay: Ba/F3 cell proliferation suppression, naive; conditions: Mus musculus, BaF3; 72 hours after treatment, CellTiter-Glo
Experimental: as §1, §2, §3, §4

[8] = target: T2, Ba/F3 cell EGFR Exon20 ins FQEA (Homo sapiens, UniProt P00533, INS763FQEA); assay: Ba/F3 cell proliferation suppression, EGFR Exon20 ins FQEA; conditions: 72 hours after treatment, CellTiter-Glo
T2 construct: expressed in transfected cells; host or cells: Ba/F3
Experimental: as §1, §2, §3, §4

[9] = target: T3, Ba/F3 cell EGFR Exon20 ins ASV (Homo sapiens, UniProt P00533, INS769ASV); assay: Ba/F3 cell proliferation suppression, EGFR Exon20 ins ASV; conditions: 72 hours after treatment, CellTiter-Glo
T3 construct: expressed in transfected cells; host or cells: Ba/F3
Experimental: as §1, §2, §3, §4

[10] = target: T4, Ba/F3 cell EGFR Exon20 ins NPH (Homo sapiens, UniProt P00533, INS773NPH); assay: Ba/F3 cell proliferation suppression, EGFR Exon20 ins NPH; conditions: for Ba/F3 (NPH) Activity: GI50 class, Ba/F3 cell line with NPH inserted at Exon20 of EGFR, 72 hours
T4 construct: expressed in transfected cells; host or cells: Ba/F3
Outline: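 Cells (3000–5000/well) plated 24 h before compound, 12-point 3-fold dilutions at 0.3 nM to 50 um final; Ba/F3 lines grown with 5 ng/ml IL-3. Viability by CellTiter-Glo luminescence after 72 h, growth ratio vs control, GI50 from curves; triplicate.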

[11] = target: T5, Ba/F3 cell EGFR L858R/T790M (Homo sapiens, UniProt P00533, L858R/T790M); assay: Ba/F3 cell proliferation suppression, EGFR L858R/T790M; conditions: 72 hours after treatment, CellTiter-Glo
T5 construct: expressed in transfected cells; host or cells: Ba/F3
Experimental: as §1, §2, §3, §4

[12] = target: T6, Ba/F3 cell EGFR Exon20 ins SVD (Homo sapiens, UniProt P00533, INS770SVD); assay: Ba/F3 cell proliferation suppression, EGFR Exon20 ins SVD; conditions: 72 hours after treatment, CellTiter-Glo
T6 construct: expressed in transfected cells; host or cells: Ba/F3
Experimental: as §1, §2, §3, §4

[13] = test system: Ba/F3 cell EGFR Del19/T790M; assay: Ba/F3 cell proliferation suppression, EGFR Del19/T790M; conditions: 72 hours after treatment, CellTiter-Glo
Experimental: as §1, §2, §3, §4

Row | GI50 [1] | GI50 [2] | GI50 [3] | GI50 [4] | GI50 [5] | GI50 [6] | GI50 [7] | GI50 [8] | GI50 [9] | GI50 ([10]; 72 hours after treatment, CellTiter-Glo) | Ba/F3 (NPH) Activity [10] | GI50 [11] | GI50 [12] | GI50 [13] | Structure (SMILES)
1 | 1 nM | 34 nM | 20 nM | > 15000 nM | – | – | – | – | – | – | – | – | – | – | C=CC(=O)N1CCC(Oc2cc3c(Nc4ccc(Cl)c(Cl)c4F)ncnc3cc2OC)CC1 [Poziotinib]
2 | – | – | – | – | 0.5 to 5 µM | 0.05 to 0.5 µM | ≥ 5 µM | < 0.05 µM | 0.05 to 0.5 µM | 0.05 to 0.5 µM | B (50 nM ≤ GI50 < 500 nM) | 0.5 to 5 µM | 0.05 to 0.5 µM | 0.05 to 0.5 µM | C=CC(=O)Nc1cc(Nc2cc(N3OCC[C@H]3c3ccccc3)ncn2)c(OC)cc1N1CCN(C)CC1 [Example 3, N-(4-methoxy-2-(4-methylpiperazine-1-yl)-5-((6((S)-3-phenylisoxazolidine-2-yl)pyrimidine-4-yl)amino)phenyl) acrylamide]
3 | 2 nM | 9 nM | 7 nM | > 15000 nM | – | – | – | – | – | – | A (GI50 < 50 nM) | – | – | – | C=CC(=O)Nc1cc(Nc2cc(N3OCC[C@@H]3c3ccccc3)ncn2)c(OC)cc1N1CCC(N2CCOCC2)CC1 [Example 11, N-(4-methoxy-2-(4-morpholinopiperidine-1-yl)-5-((6-((R)-3-phenylisoxazolidine-2-yl)pyrimidine-4-yl)amino)phenyl) acrylamide]
4 | 7 nM | 36 nM | 16 nM | 2410 nM | – | – | – | – | – | – | – | – | – | – | C=CC(=O)Nc1cc(Nc2nccc(-c3cn(C)c4ccccc34)n2)c(OC)cc1N(C)CCN(C)C [Osimertinib]
